# Assay results as given in ChEMBL document CHEMBL3045632, “Synthetic inhibitors of the fungal detoxifying enzyme brassinin oxidase based on the phytoalexin camalexin scaffold” (J Agric Food Chem, 2009).
# Experiments:
# Plenodomus lingam [1] = assay: Inhibition of Leptosphaeria maculans brassinin oxidase activity at 0.30 mM relative to control
# [2] = Solubility of the compound at 50 mM; format: physicochemical; conditions: 50000 µM
# Plenodomus lingam [3] = assay: Antifungal activity against Leptosphaeria maculans assessed as inhibition of mycelial growth at 0.20 mM relative to control; format: functional
# Plenodomus lingam [4] = assay: Antifungal activity against Leptosphaeria maculans assessed as inhibition of mycelial growth at 0.10 mM relative to control; format: functional
# Plenodomus lingam [5] = assay: Inhibition of Leptosphaeria maculans brassinin oxidase assessed as relative protein at 0.50 mM relative to control
# Plenodomus lingam [6] = assay: Inhibition of Leptosphaeria maculans brassinin oxidase assessed as relative protein at 0.20 mM relative to control
# Plenodomus lingam [7] = assay: Inhibition of Leptosphaeria maculans brassinin oxidase assessed as relative protein at 0.10 mM relative to control
# Plenodomus lingam [8] = assay: Inhibition of Leptosphaeria maculans brassinin oxidase assessed as relative specific activity at 0.50 mM relative to control
# Plenodomus lingam [9] = assay: Inhibition of Leptosphaeria maculans brassinin oxidase assessed as relative specific activity at 0.20 mM relative to control
# Plenodomus lingam [10] = assay: Inhibition of Leptosphaeria maculans brassinin oxidase assessed as relative specific activity at 0.10 mM relative to control
# Plenodomus lingam [11] = assay: Inhibition of Leptosphaeria maculans brassinin oxidase activity at 0.10 mM relative to control
# Plenodomus lingam [12] = assay: Antifungal activity against Leptosphaeria maculans assessed as inhibition of mycelial growth at 0.50 mM relative to control; format: functional
SMILES,inhibition (Plenodomus lingam [1]) [%],solubility [2],Ratio (Plenodomus lingam [5]),Ratio (Plenodomus lingam [6]),Ratio (Plenodomus lingam [7]),Ratio (Plenodomus lingam [8]),Ratio (Plenodomus lingam [9]),Ratio (Plenodomus lingam [10]),inhibition (Plenodomus lingam [11]) [%],inhibition at 200 µM (Plenodomus lingam [3]) [%],inhibition at 100 µM (Plenodomus lingam [4]) [%],inhibition at 500 µM (Plenodomus lingam [12]) [%]
c1ccc2cc(-c3cnsc3)ccc2c1 [2-NAPHTHALENYLISOTHIAZOLE],42,Insoluble,0.16,0.17,0.26,16.3,8.5,2.6,29,53,41,
c1ccc(-c2c[nH]c3ccccc23)cc1 [3-PHENYLINDOLE],,,0.1,0.14,0.18,5.7,39.2,30.9,,,100,
Fc1ccc2c(-c3ccccc3)c[nH]c2c1,17,,,,,,,,11,,,
COc1ccc2c(-c3nccs3)c[nH]c2c1 [6-METHOXYCAMALEXIN],63,,0.11,0.16,0.27,4,3.7,2.3,41,78,17,100
Fc1ccc2[nH]cc(-c3nccs3)c2c1 [5-FLUOROCAMALEXIN],63,,0.19,0.23,0.3,7.9,4.9,5,47,81,76,100
COc1ccc2[nH]cc(-c3nccs3)c2c1 [5-METHOXYCAMALEXIN],72,,0.13,0.24,0.28,1.6,5.8,1.7,51,84,60,100
Fc1ccc2c(-c3nccs3)c[nH]c2c1 [6-FLUOROCAMALEXIN],46,,0.24,0.28,0.36,1.8,4,3.9,29,47,29,83

# Continued, in another order:
inhibition (Plenodomus lingam [1]) [%],solubility [2],Ratio (Plenodomus lingam [5]),Ratio (Plenodomus lingam [6]),Ratio (Plenodomus lingam [7]),Ratio (Plenodomus lingam [8]),Ratio (Plenodomus lingam [9]),Ratio (Plenodomus lingam [10]),inhibition (Plenodomus lingam [11]) [%],SMILES,inhibition at 200 µM (Plenodomus lingam [3]) [%],inhibition at 100 µM (Plenodomus lingam [4]) [%],inhibition at 500 µM (Plenodomus lingam [12]) [%]
53,,0.1,0.24,0.28,2.5,6.9,4.5,30,c1ccc2c(-c3nccs3)c[nH]c2c1 [CAMALEXIN],65,35,100
21,,,,,,,,16,c1ccc2c(-c3cnsc3)cccc2c1,,,
25,,0.06,0.28,0.35,4.9,4.1,1.9,16,c1ccc2[nH]c(-c3cscn3)nc2c1 [THIABENDAZOLE],,100,
